The series deals with lipid peroxidation in rat liver microsomes. As to the kind of experiment: Anti-lipid peroxidation in rat liver microsomes (NADPH-induced, MDA-TBA absorbance at 535 nm). It counts as biochemical. On the procedure:
In the present, the rat microsomes is used to provide lipid source. The product of lipid peroxidation induced by NADPH with heat treatment (deconstructing microsome enzyme) is referred as MDA (malondialdehyde). The MDA is added with TBA (thiobarbituric acid) to form MDA-TBA compound with pink fluorescence. The MDA-TBA compound has absorption spectrum at 535 nm (or 532 nm) wavelength. The content of MDA can be manifested by the absorption degree of light at those wavelengths. Therefore, the degree of lipid peroxidation can also be known. If the content of MDA is decreased after addition of water soluble CM chitosan, the reduction of MDA can be attributed to the water soluble CM chitosan. It means that the water soluble CM chitosan has the ability of anti-lipid peroxidation. In the present invention, the anti-lipid peroxidation ability of the water soluble CM chitosan is compared with that of the Trolex (water soluble vitamin E).
Background: Microsomes from liver hold many membrane-bound enzymes, among them those of drug oxidation.

In brackets after ≈: the same amount, converted by molar mass.

For `Cc1c(C)c2c(c(C)c1O)CCC(C)(C(=O)O)O2` (stereo not drawn) [Trolex], the “effect on lipid peroxidation in rat liver microsomes” value (addition of the substance to rat liver microsomes) is reported as “can suppress the lipid peroxidation”. Also, for the setting “as the added amount of the substance is increased”, the “MDA, the product of lipid peroxidation” value was “monotonically decreased”. For the same molecule, the “IC50 (the concentration required to suppress 50% lipid peroxidation)” value (rat liver microsomes, average over at least three data) was determined as 4.96 µg/mL (≈ 19.8 µM).

Values taken from patent US20020147318A1, “Preparation method of water soluble carboxylmethyl chitosan having anti-lipid peroxidation ability” (priority 2001, published 2002).
